From patent US20230183219A1, “CONDENSED SUBSTITUTED HYDROPYRROLES AS ANTAGONISTS OF THE MUSCARINIC ACETYLCHOLINE RECEPTOR M4” (Vanderbilt University, priority 2020, published 2023)

What was measured:
Human M4 = molecular target: T1, Human M4 (Homo sapiens, UniProt P08173); assay: mAChR M4 cell-based functional assay (calcium flux, decrease of EC80 acetylcholine response); settings: for remaining activity at 30 µM: % ACh maximum at 30 μM, read-out: Human M4 Emin; for IC50: M4/Gqi5/CHO-K1 cells, decrease of response to EC80 acetylcholine
T1 construct: Human or rat M4 cDNA, along with the chimeric G protein Gqi5, were transfected into Chinese hamster ovary (CHO-K1) cells; expressed in transfected cells; host or cells: CHO-K1 (Chinese hamster ovary, ATCC), stably co-expressing Gqi5
T1 sequence (P08173 1-479): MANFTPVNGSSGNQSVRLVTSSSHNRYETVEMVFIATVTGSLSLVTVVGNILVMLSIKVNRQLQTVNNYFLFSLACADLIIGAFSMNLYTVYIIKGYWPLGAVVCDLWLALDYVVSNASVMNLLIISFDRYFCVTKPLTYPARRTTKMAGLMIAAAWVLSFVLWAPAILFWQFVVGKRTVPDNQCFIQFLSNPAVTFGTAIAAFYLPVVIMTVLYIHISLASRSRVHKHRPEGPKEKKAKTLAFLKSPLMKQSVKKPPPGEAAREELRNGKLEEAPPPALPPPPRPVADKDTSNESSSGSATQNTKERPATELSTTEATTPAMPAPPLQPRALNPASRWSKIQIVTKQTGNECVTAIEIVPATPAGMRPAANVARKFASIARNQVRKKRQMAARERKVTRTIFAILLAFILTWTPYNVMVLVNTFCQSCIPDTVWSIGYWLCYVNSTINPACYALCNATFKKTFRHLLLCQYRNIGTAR
In short: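 IC50 reflects inhibition of an EC80 acetylcholine calcium response, fitted by four-parameter logistic equation. Fluo-4-loaded M4/Gqi5 CHO-K1 cells received compound (10-point, 1:3 series) 2 s into the FDSS read, then EC20 acetylcholine at 143 s and EC80 at 268 s.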

[1] = tested on: haloperidol-induced catalepsy; settings: cited from earlier work

| Compound | remaining activity at 30 µM (Human M4) [%] | IC50 (Human M4) [nM] | reduction of catalepsy induced by haloperidol ([1]; M4KO mice) | reversal of catalepsy induced by haloperidol ([1]; WT mice) |
| --- | --- | --- | --- | --- |
| Cn1cc2cc(-c3cnc(N[C@H]4C[C@@H]5CN(Cc6ccc7c(c6)OCO7)C[C@@H]5C4)nc3)ccc2n1 [Example 13, (3aR,5s,6aS)-2-(benzo[d][1,3]dioxol-5-ylmethyl)-N-(5-(2-methyl-2H-indazol-5-yl)pyrimidin-2-yl)octahydro-cyclopenta[c]pyrrol-5-amine] | 10 | 5290 |  |  |
| Fc1ccc(F)c(-c2cc(C(F)(F)F)c(N[C@H]3C[C@@H]4CN(C[C@@H]5COCCO5)C[C@@H]4C3)nn2)c1 [Example 69, (3aR,5s,6aS)-2-(((R)-1,4-dioxan-2-yl)methyl)-N-(6-(2,5-difluorophenyl)-4-(trifluoromethyl)pyridazin-3-yl)octahydro-cyclopenta[c]pyrrol-5-amine] | 3 | 242 |  |  |
| Cc1ccc(F)cc1-c1cc(C(F)(F)F)c(N[C@H]2C[C@@H]3CN(C[C@H]4CC5CCC4O5)C[C@@H]3C2)nn1 (stereo partly drawn) [Example 25, (3aR,5s,6aS)-2-(((2R)-7-oxabicyclo[2.2.1]heptan-2-yl)methyl)-N-(6-(5-fluoro-2-methylphenyl)-4-(trifluoromethyl)pyridazin-3-yl)octahydro-cyclopenta[c]pyrrol-5-amine] | 2 | 11.1 |  |  |
| [2H]C([2H])(C1CCOCC1)N1C[C@H]2C[C@H](Nc3nnc(-c4cc(F)ccc4Cl)cc3C(F)(F)F)C[C@H]2C1 [Example 16, (3aR,5s,6aS)-N-(6-(2-chloro-5-fluorophenyl)-4-(trifluoro-methyl)pyridazin-3-yl)-2-((tetrahydro-2H-pyran-4-yl)methyl-d2)octahydro-cyclopenta[c]pyrrol-5-amine] | 3 | 9.2 |  |  |
| FC(F)(F)c1cc(N2CCCC2)nnc1N[C@H]1C[C@@H]2CN(CC3CCOCC3)C[C@@H]2C1 [Example 142, (3aR,5s,6aS)-N-(6-(pyrrolidin-1-yl)-4-(trifluoro-methyl)pyridazin-3-yl)-2-((tetrahydro-2H-pyran-4-yl)methyl)octahydro-cyclopenta[c]pyrrol-5-amine] | 2 | 3 |  |  |
| CCOc1ccc(-c2cc(C(F)(F)F)c(N[C@H]3C[C@@H]4CN(CC5CCOCC5)C[C@@H]4C3)nn2)c(C)c1 [Example 84, (3aR,5s,6aS)-N-(6-(4-ethoxy-2-methylphenyl)-4-(trifluoromethyl)pyridazin-3-yl)-2-((tetrahydro-2H-pyran-4-yl)methyl)octahydro-cyclopenta[c]pyrrol-5-amine] | 3 | 73.7 |  |  |
| CCc1ccccc1-c1cc(C(F)(F)F)c(N[C@H]2C[C@@H]3CN(CC4CCOCC4)C[C@@H]3C2)nn1 [Example 85, (3aR,5s,6aS)-N-(6-(2-ethylphenyl)-4-(trifluoro-methyl)pyridazin-3-yl)-2-((tetrahydro-2H-pyran-4-yl)methyl)octahydro-cyclopenta[c]pyrrol-5-amine] | 3 | 42.8 |  |  |
| [2H]C([2H])([C@H]1CCOC1)N1C[C@H]2C[C@H](Nc3nnc(-c4cc(C)ccc4C)cc3C(F)(F)F)C[C@H]2C1 [Example 116, (3aR,5s,6aS)-N-(6-(2,5-dimethylphenyl)-4-(trifluoro-methyl)pyridazin-3-yl)-2-(((R)-tetrahydrofuran-3-yl)methyl-d2)octahydro-cyclopenta[c]pyrrol-5-amine] | 3 | 266 |  |  |
| [2H]C([2H])([C@@H]1CCOC1)N1C[C@H]2C[C@H](Nc3nnc(-c4cc(C)ccc4C)cc3C(F)(F)F)C[C@H]2C1 [Example 115, (3aR,5s,6aS)-N-(6-(2,5-dimethylphenyl)-4-(trifluoro-methyl)pyridazin-3-yl)-2-(((S)-tetrahydrofuran-3-yl)methyl-d2)octahydro-cyclopenta[c]pyrrol-5-amine] | 3 | 176 |  |  |
| CN1[C@@H]2C[C@@H](OC(=O)[C@H](CO)c3ccccc3)C[C@H]1[C@@H]1O[C@@H]12 [scopolamine] |  |  | ineffective | completely reversed |
| Cn1cc2cc(-c3cc(C#N)c(N[C@H]4C[C@@H]5CN(CC6CCOCC6)C[C@@H]5C4)nn3)ccc2n1 [Example 153, 6-(2-methyl-2H-indazol-5-yl)-3-(((3aR,5s,6aS)-2-((tetrahydro-2H-pyran-4-yl)methyl)octahydro-cyclopenta[c]pyrrol-5-yl)amino)pyridazine-4-carbonitrile] | 11 | 9.7 |  |  |
